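Each compound was tested at five concentrations against cells in 96-well plates for 48 hours. The concentration for 50% growth inhibition is given as GI50.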 The source made the active and inactive calls. No stated cut-off is given here; in the data, active = GI50 up to about 1.1 µM and inactive = higher. Where a SMILES comes first, the peptide text is derived from it. Bridges are numbered along the chain shown (N, C = ends). The star is where a group is joined. Cbz = O=C(OCc1ccccc1)*
Columns and labels:
Assay in all cases: inhibition of tumour cell growth, NCI panel, 48 h
A498 = tested on: A498
CCRF-CEM = tested on: CCRF-CEM
HCT-116 = tested on: HCT-116
HT-29 = tested on: HT-29
K562 = tested on: K562
LOX IMVI = tested on: LOX IMVI
MCF7 = tested on: MCF7
MDA-MB-231 = tested on: MDA-MB-231
MDA-MB-435 = tested on: MDA-MB-435
MOLT-4 = tested on: MOLT-4
Malme-3M = tested on: Malme-3M
NCI-H522 = tested on: NCI-H522
OVCAR-4 = tested on: OVCAR-4
OVCAR-5 = tested on: OVCAR-5
SF-295 = tested on: SF-295
SF-539 = tested on: SF-539
SK-MEL-28 = tested on: SK-MEL-28
SK-OV-3 = tested on: SK-OV-3
SNB-75 = tested on: SNB-75
U-251 = tested on: U-251

Compound	GI50 (A498)	GI50 (CCRF-CEM)	GI50 (HCT-116)	GI50 (HT-29)	GI50 (K562)	GI50 (LOX IMVI)	GI50 (MCF7)	GI50 (MDA-MB-231)	GI50 (MDA-MB-435)	GI50 (MOLT-4)	GI50 (Malme-3M)	GI50 (NCI-H522)	GI50 (OVCAR-4)	GI50 (OVCAR-5)	GI50 (SF-295)	GI50 (SF-539)	GI50 (SK-MEL-28)	GI50 (SK-OV-3)	GI50 (SNB-75)	GI50 (U-251)
c1ccc(-c2nc3ccccc3n3c(CN4CCCCC4)nnc23)cc1	60 µM (inactive)	> 100 µM (inactive)	> 100 µM (inactive)	> 100 µM (inactive)	> 100 µM (inactive)	> 100 µM (inactive)	> 100 µM (inactive)	60 µM (inactive)	> 100 µM (inactive)	> 100 µM (inactive)	> 100 µM (inactive)	> 100 µM (inactive)	> 100 µM (inactive)	> 100 µM (inactive)	49.4 µM (inactive)	51.3 µM (inactive)	> 100 µM (inactive)	47.3 µM (inactive)	19.2 µM (inactive)	47 µM (inactive)
CNCCCNC(=S)Cn1cc(C)c(=O)[nH]c1=O	> 55.6 µM (inactive)	> 30.6 µM (inactive)	> 33.8 µM (inactive)	> 35.9 µM (inactive)	> 42.2 µM (inactive)	> 34.2 µM (inactive)	> 31.8 µM (inactive)	> 60.4 µM (inactive)	> 26.1 µM (inactive)	> 35.2 µM (inactive)	> 100 µM (inactive)	> 53.6 µM (inactive)	> 53.2 µM (inactive)	> 69.5 µM (inactive)	> 27 µM (inactive)	> 20.1 µM (inactive)	> 56.9 µM (inactive)	> 54.8 µM (inactive)	> 54.2 µM (inactive)	> 47.5 µM (inactive)
O=C(OC1C=C=CS(=O)(=O)CC#C/C=C\1)c1cnc2ccccc2n1 (configuration not stated)	> 100 µM (inactive)	> 100 µM (inactive)	92.3 µM (inactive)	> 100 µM (inactive)	61.4 µM (inactive)	29.8 µM (inactive)	27.5 µM (inactive)	28.8 µM (inactive)	> 100 µM (inactive)	50.7 µM (inactive)	> 100 µM (inactive)	25.7 µM (inactive)	> 100 µM (inactive)	> 100 µM (inactive)	> 100 µM (inactive)	> 100 µM (inactive)	> 100 µM (inactive)	> 100 µM (inactive)	> 100 µM (inactive)	84.1 µM (inactive)
O=C1/C(=C/c2ccc(O)c(O)c2)CC/C1=C\c1ccc(O)c(O)c1	17 µM (inactive)	1.65 µM (inactive)	3.58 µM (inactive)	18.5 µM (inactive)	3.24 µM (inactive)	6.67 µM (inactive)	6.15 µM (inactive)	28.7 µM (inactive)	4.68 µM (inactive)	3.23 µM (inactive)	> 29.8 µM (inactive)	2.01 µM (inactive)	5.33 µM (inactive)	> 42.2 µM (inactive)	> 44.5 µM (inactive)	2.49 µM (inactive)	14.2 µM (inactive)	12.1 µM (inactive)	6.7 µM (inactive)	3.97 µM (inactive)
Nc1nc(-c2cccs2)cs1	> 100 µM (inactive)	29 µM (inactive)	56.8 µM (inactive)	> 100 µM (inactive)	> 100 µM (inactive)	79.1 µM (inactive)	91.8 µM (inactive)	60.4 µM (inactive)	79.8 µM (inactive)	–	> 100 µM (inactive)	34.9 µM (inactive)	> 100 µM (inactive)	> 100 µM (inactive)	64.4 µM (inactive)	> 100 µM (inactive)	> 100 µM (inactive)	> 100 µM (inactive)	> 100 µM (inactive)	71.3 µM (inactive)
O=C(CC(O)(C(F)(F)F)C(F)(F)F)C(CCCl)C(O)(C(F)(F)F)C(F)(F)F (configuration not stated)	25.4 µM (inactive)	39.9 µM (inactive)	26.7 µM (inactive)	23.8 µM (inactive)	39.7 µM (inactive)	55.7 µM (inactive)	85.1 µM (inactive)	65 µM (inactive)	62.7 µM (inactive)	71.9 µM (inactive)	24.7 µM (inactive)	34.4 µM (inactive)	49.2 µM (inactive)	44.2 µM (inactive)	33.5 µM (inactive)	54.8 µM (inactive)	57.3 µM (inactive)	45.6 µM (inactive)	24.9 µM (inactive)	35.6 µM (inactive)
COC(=O)C1CCCCNC(=O)CCC(NC(=O)OCc2ccccc2)C(=O)N1 (stereo not drawn) (Cbz-Glu-Lys-OMe; lactam 1-2; configuration not given here)	> 100 µM (inactive)	> 100 µM (inactive)	> 100 µM (inactive)	> 100 µM (inactive)	> 100 µM (inactive)	> 100 µM (inactive)	> 100 µM (inactive)	62.7 µM (inactive)	> 100 µM (inactive)	> 100 µM (inactive)	> 100 µM (inactive)	> 100 µM (inactive)	> 100 µM (inactive)	> 100 µM (inactive)	50.1 µM (inactive)	> 100 µM (inactive)	> 100 µM (inactive)	56.1 µM (inactive)	> 100 µM (inactive)	39.3 µM (inactive)
N#Cc1c(=O)c2cc([N+](=O)[O-])ccc2n2c1[nH]c1ccccc12	1.71 µM (inactive)	5.37 µM (inactive)	3.37 µM (inactive)	8.09 µM (inactive)	3.78 µM (inactive)	5.24 µM (inactive)	6.92 µM (inactive)	4.76 µM (inactive)	10.3 µM (inactive)	4.83 µM (inactive)	8.89 µM (inactive)	2.18 µM (inactive)	3.38 µM (inactive)	6 µM (inactive)	4.2 µM (inactive)	17.3 µM (inactive)	4.48 µM (inactive)	5.79 µM (inactive)	10.7 µM (inactive)	7.71 µM (inactive)
O=C1N/C(=N/N=C/c2ccccc2)N/C1=C\c1c[nH]c2ccccc12	> 100 µM (inactive)	11.4 µM (inactive)	> 100 µM (inactive)	> 100 µM (inactive)	47.1 µM (inactive)	44.1 µM (inactive)	80.7 µM (inactive)	42.9 µM (inactive)	> 100 µM (inactive)	25.1 µM (inactive)	> 100 µM (inactive)	74.3 µM (inactive)	> 100 µM (inactive)	> 100 µM (inactive)	> 100 µM (inactive)	> 100 µM (inactive)	> 100 µM (inactive)	> 100 µM (inactive)	> 100 µM (inactive)	21.9 µM (inactive)
CC1(C)[C@@H]2CC[C@@]1(C)CN(CCC[N+](C)(C)C)C2	> 100 µM (inactive)	> 100 µM (inactive)	> 100 µM (inactive)	> 100 µM (inactive)	> 100 µM (inactive)	> 100 µM (inactive)	> 100 µM (inactive)	> 100 µM (inactive)	> 100 µM (inactive)	> 100 µM (inactive)	> 100 µM (inactive)	> 100 µM (inactive)	> 100 µM (inactive)	> 100 µM (inactive)	> 100 µM (inactive)	> 100 µM (inactive)	> 100 µM (inactive)	> 100 µM (inactive)	> 100 µM (inactive)	> 100 µM (inactive)
S=C(NN=C1NCCCCN1)Nc1ccc(Cl)cc1	33 µM (inactive)	4.48 µM (inactive)	7.52 µM (inactive)	16.2 µM (inactive)	5.85 µM (inactive)	11.7 µM (inactive)	34 µM (inactive)	21 µM (inactive)	22.9 µM (inactive)	6.67 µM (inactive)	17.1 µM (inactive)	12.9 µM (inactive)	38.9 µM (inactive)	14.8 µM (inactive)	13.7 µM (inactive)	28.2 µM (inactive)	31 µM (inactive)	15.1 µM (inactive)	23.8 µM (inactive)	7.71 µM (inactive)
CCNc1ncnc2nn[nH]c12	> 100 µM (inactive)	> 100 µM (inactive)	> 100 µM (inactive)	> 100 µM (inactive)	> 100 µM (inactive)	> 100 µM (inactive)	> 100 µM (inactive)	> 100 µM (inactive)	> 100 µM (inactive)	> 100 µM (inactive)	> 100 µM (inactive)	> 100 µM (inactive)	> 100 µM (inactive)	–	> 100 µM (inactive)	> 100 µM (inactive)	> 100 µM (inactive)	> 100 µM (inactive)	> 100 µM (inactive)	> 100 µM (inactive)
N#Cc1c(-c2ccc([N+](=O)[O-])cc2)cc(-c2ccc(Nc3ccnc4cc(C(F)(F)F)ccc34)cc2)nc1N	> 48.3 µM (inactive)	1.88 µM (inactive)	6.92 µM (inactive)	5.13 µM (inactive)	3.64 µM (inactive)	3.64 µM (inactive)	2.59 µM (inactive)	18.9 µM (inactive)	9.14 µM (inactive)	4.34 µM (inactive)	30.3 µM (inactive)	17.2 µM (inactive)	7.6 µM (inactive)	30.9 µM (inactive)	15.9 µM (inactive)	26.9 µM (inactive)	25.5 µM (inactive)	24 µM (inactive)	20.4 µM (inactive)	6.34 µM (inactive)
N#CC1CNC(N)NC1N (configuration not stated)	> 100 µM (inactive)	< 0.01 µM (active)	> 100 µM (inactive)	> 100 µM (inactive)	64.1 µM (inactive)	> 100 µM (inactive)	> 100 µM (inactive)	> 100 µM (inactive)	> 100 µM (inactive)	–	> 100 µM (inactive)	> 100 µM (inactive)	> 100 µM (inactive)	> 100 µM (inactive)	> 100 µM (inactive)	> 100 µM (inactive)	> 100 µM (inactive)	> 100 µM (inactive)	> 100 µM (inactive)	> 100 µM (inactive)

From ChEMBL document CHEMBL1201862, “PubChem BioAssay data set” (2004)
